Assay results as given in PubChem BioAssay AID256 (DTP/NCI, 2004).
Several values for one entry are separate records, joined by “and”; a condition that tells them apart may be missing. Equal entries are not always repeated. Toxic doses and inconclusive results are not listed.

Test system: CD2F1 mice, L1210 leukemia ip, survival T/C
Assay: NCI In Vivo Anticancer Drug Screen. Data for tumor model L1210 Leukemia (intraperitoneal) in CD2F1 (CDF1) mice
Settings: higher = longer survival
In short: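 Ratio T/C, where T is the treated-group value and C the vehicle-dosed control value, from mice implanted with a transplantable tumor.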

[1] = endpoint: mean survival time, dose: 100.0 mg/kg/injection, schedule: Q01DX009 (ip), vehicle: other
[2] = endpoint: mean survival time, dose: 200.0 mg/kg/injection, schedule: Q01DX009 (ip), vehicle: other
[3] = endpoint: mean survival time, dose: 100.0 mg/kg/injection, schedule: Q04DX003 (ip), vehicle: saline with Tween-80
[4] = endpoint: mean survival time, dose: 200.0 mg/kg/injection, schedule: Q04DX003 (ip), vehicle: saline with Tween-80
[5] = endpoint: mean survival time, dose: 400.0 mg/kg/injection, schedule: Q04DX003 (ip), vehicle: saline with Tween-80
[6] = endpoint: mean survival time, dose: 100.0 mg/kg/injection, schedule: Q01DX009 (ip), vehicle: saline with Tween-80
[7] = endpoint: mean survival time, dose: 200.0 mg/kg/injection, schedule: Q01DX009 (ip), vehicle: saline with Tween-80
[8] = endpoint: mean survival time, dose: 12.5 mg/kg/injection, schedule: Q01DX001 (ip), vehicle: saline with Tween-80
[9] = endpoint: mean survival time, dose: 25.0 mg/kg/injection, schedule: Q01DX001 (ip), vehicle: saline with Tween-80
[10] = endpoint: mean survival time, dose: 400.0 mg/kg/injection, schedule: Q01DX009 (ip), vehicle: saline with Tween-80
[11] = endpoint: mean survival time, dose: 50.0 mg/kg/injection, schedule: Q01DX009 (ip), vehicle: saline with Tween-80
[12] = endpoint: mean survival time, dose: 50.0 mg/kg/injection, schedule: Q01DX001 (ip), vehicle: saline with Tween-80
[13] = endpoint: mean survival time, dose: 100.0 mg/kg/injection, schedule: Q01DX001 (ip), vehicle: saline with Tween-80
[14] = endpoint: mean survival time, dose: 200.0 mg/kg/injection, schedule: Q01DX001 (ip), vehicle: saline with Tween-80
[15] = endpoint: mean survival time, dose: 400.0 mg/kg/injection, schedule: Q01DX001 (ip), vehicle: saline with Tween-80
[16] = endpoint: mean survival time, dose: 75.0 mg/kg/injection, schedule: Q01DX001 (ip), vehicle: saline

NC(=O)c1[nH]cnc1O
T/C (endpoint: median survival time, dose: 25.0 mg/kg/injection, schedule: Q01DX005 (ip), vehicle: saline with Tween-80): 109 % of control and 110 % of control | T/C (endpoint: median survival time, dose: 50.0 mg/kg/injection, schedule: Q01DX005 (ip), vehicle: saline with Tween-80): 113 % of control and 112 % of control | T/C (endpoint: median survival time, dose: 100.0 mg/kg/injection, schedule: Q01DX005 (ip), vehicle: saline with Tween-80): 116 % of control and 119 % of control | T/C (endpoint: median survival time, dose: 144.0 mg/kg/injection, schedule: Q01DX005 (ip), vehicle: saline with Tween-80): 117 % of control | T/C (endpoint: median survival time, dose: 200.0 mg/kg/injection, schedule: Q01DX005 (ip), vehicle: saline with Tween-80): 118 % of control and 120 % of control | T/C (endpoint: median survival time, dose: 400.0 mg/kg/injection, schedule: Q01DX005 (ip), vehicle: saline with Tween-80): 120 % of control

Oc1ccc(O)c(CCCCCc2cc(O)ccc2O)c1
T/C [1]: 102 % of control | T/C [2]: 98 % of control

N#CN(Cc1ccc(Cl)cc1Cl)C(=O)OCOc1ccc(Cl)cc1
T/C [3]: 88 % of control | T/C [4]: 89 % of control | T/C [5]: 96 % of control

NS(=O)(=O)c1ccc(Cl)c(Cl)c1
T/C [6]: 108 % of control | T/C [7]: 111 % of control

CCCCCCCCCCCCCCCCC(Br)C(=O)c1ccccc1 (configuration not stated)
T/C (endpoint: mean survival time, dose: 100.0 mg/kg/injection, schedule: Q04DX002 (ip), vehicle: saline with Tween-80): 102 % of control | T/C (endpoint: mean survival time, dose: 200.0 mg/kg/injection, schedule: Q04DX002 (ip), vehicle: saline with Tween-80): 95 % of control | T/C (endpoint: mean survival time, dose: 400.0 mg/kg/injection, schedule: Q04DX002 (ip), vehicle: saline with Tween-80): 111 % of control

Cc1cc(=O)c(Cl)cc(=O)[nH]1
T/C [8]: 95 % of control | T/C [9]: 95 % of control

NC(=O)CC(NC(=O)CCl)C(=O)O (configuration not stated)
T/C [3]: 101 % of control | T/C [4]: 92 % of control | T/C [5]: 92 % of control

CCOC(=O)CC(=O)c1ccccc1SC
T/C [6]: 98 % of control | T/C [7]: 96 % of control | T/C [10]: 96 % of control

C[N+](C)(CC(=O)O)c1ccccc1
T/C (endpoint: mean survival time, dose: 100.0 mg/kg/injection, schedule: Q04DX003 (ip), vehicle: saline): 98 % of control | T/C (endpoint: mean survival time, dose: 200.0 mg/kg/injection, schedule: Q04DX003 (ip), vehicle: saline): 96 % of control | T/C (endpoint: mean survival time, dose: 400.0 mg/kg/injection, schedule: Q04DX003 (ip), vehicle: saline): 108 % of control

Cc1c(C)c(C)c(CCl)c(C)c1C
T/C [11]: 103 % of control | T/C [6]: 103 % of control

O=C(NNC(=O)c1ccccc1Cl)Nc1ccc(F)c(Cl)c1
T/C [6]: 91 % of control | T/C [7]: 86 % of control | T/C [10]: 87 % of control

O=C(CN1CCCCC1Cl)c1ccccc1 (configuration not stated)
T/C (endpoint: mean survival time, dose: 25.0 mg/kg/injection, schedule: Q01DX009 (ip), vehicle: saline with Tween-80): 102 % of control | T/C [11]: 96 % of control | T/C [6]: 102 % of control

CN(N=O)C(=O)NC1C(CO)OC(n2ccc(N)nc2=O)C1O (configuration not stated)
T/C [8]: 101 % of control | T/C [9]: 110 % of control | T/C [12]: 98 % of control | T/C [13]: 98 % of control | T/C [14]: 103 % of control | T/C [15]: 108 % of control

O/N=C(/Cc1ccccc1)c1ccccc1
T/C [13]: 100 % of control | T/C [14]: 92 % of control | T/C [15]: 90 % of control

COc1ccc(/C=C(/C(=O)O)c2ccc(OC)cc2)cc1
T/C [1]: 98 % of control | T/C [2]: 102 % of control | T/C (endpoint: mean survival time, dose: 400.0 mg/kg/injection, schedule: Q01DX009 (ip), vehicle: other): 98 % of control

O=C(O)c1cc2c3ccccc3ncc2c2ccccc12
T/C [3]: 94 % of control | T/C [4]: 100 % of control | T/C [5]: 101 % of control

Cc1ccc(NCCN2CCCCC2)c2c(=O)c3ccccc3sc12
T/C (endpoint: mean survival time, dose: 100.0 mg/kg/injection, schedule: Q04DX003 (ip), vehicle: Klucel (hydroxypropylcellulose) (HPC)): 93 % of control | T/C (endpoint: mean survival time, dose: 200.0 mg/kg/injection, schedule: Q04DX003 (ip), vehicle: Klucel (hydroxypropylcellulose) (HPC)): 103 % of control | T/C (endpoint: mean survival time, dose: 400.0 mg/kg/injection, schedule: Q04DX003 (ip), vehicle: Klucel (hydroxypropylcellulose) (HPC)): 109 % of control

CC(O)CNCCNC(=O)CNC(=O)C=[N+]=[N-] (configuration not stated)
T/C [2]: 108 % of control | T/C (endpoint: mean survival time, dose: 800.0 mg/kg/injection, schedule: Q01DX009 (ip), vehicle: other): 155 % of control

O/N=C/c1cccc[n+]1Cc1ccccc1
T/C (endpoint: mean survival time, dose: 1.56 mg/kg/injection, schedule: Q01DX009 (ip), vehicle: Klucel (hydroxypropylcellulose) (HPC)): 107 % of control | T/C (endpoint: mean survival time, dose: 3.13 mg/kg/injection, schedule: Q01DX009 (ip), vehicle: Klucel (hydroxypropylcellulose) (HPC)): 106 % of control | T/C (endpoint: mean survival time, dose: 6.25 mg/kg/injection, schedule: Q01DX009 (ip), vehicle: Klucel (hydroxypropylcellulose) (HPC)): 102 % of control | T/C (endpoint: mean survival time, dose: 12.5 mg/kg/injection, schedule: Q01DX009 (ip), vehicle: Klucel (hydroxypropylcellulose) (HPC)): 106 % of control | T/C (endpoint: mean survival time, dose: 25.0 mg/kg/injection, schedule: Q01DX009 (ip), vehicle: Klucel (hydroxypropylcellulose) (HPC)): 95 % of control | T/C (endpoint: mean survival time, dose: 25.0 mg/kg/injection, schedule: Q01DX009 (ip), vehicle: water): 100 % of control

Cc1cnc(Br)c(Br)c1
T/C [13]: 101 % of control | T/C [6]: 110 % of control | T/C [14]: 101 % of control | T/C [7]: 100 % of control | T/C [15]: 103 % of control | T/C [10]: 100 % of control

C[N+](C)(C)Cc1c[nH]c2ccccc12
T/C [13]: 94 % of control | T/C [14]: 91 % of control | T/C [15]: 96 % of control

O=c1[nH][nH]c(=O)c2c1oc1c(=O)[nH][nH]c(=O)c12
T/C [9]: 104 % of control | T/C [12]: 92 % of control

CC(=O)Nc1ccccc1OC(=O)c1ccccc1
T/C [11]: 97 % of control | T/C [6]: 97 % of control | T/C [3]: 101 % of control | T/C [7]: 97 % of control | T/C [4]: 95 % of control

CN(C)Cc1cc(OCc2ccccc2)cc(CN(C)C)c1O
T/C [16]: 108 % of control

COc1ccc(P(=S)(S)c2ccc(OC)cc2)cc1
T/C (endpoint: mean survival time, dose: 80.5 mg/kg/injection, schedule: Q01DX009 (ip), vehicle: saline with Tween-80): 95 % of control | T/C (endpoint: mean survival time, dose: 161.0 mg/kg/injection, schedule: Q01DX009 (ip), vehicle: saline with Tween-80): 93 % of control | T/C (endpoint: mean survival time, dose: 322.0 mg/kg/injection, schedule: Q01DX009 (ip), vehicle: saline with Tween-80): 93 % of control

Cc1ccnc([N+](=O)[O-])c1
T/C [3]: 102 % of control | T/C [4]: 96 % of control | T/C [5]: 97 % of control

CCCCCCCCCCCCCCCCN(C)C
T/C (endpoint: mean survival time, dose: 25.0 mg/kg/injection, schedule: Q04DX003 (ip), vehicle: saline with Tween-80): 94 % of control | T/C (endpoint: mean survival time, dose: 50.0 mg/kg/injection, schedule: Q04DX003 (ip), vehicle: saline with Tween-80): 95 % of control

Nc1ccn(C2CC(O)C(CO)C2)c(=O)n1 (configuration not stated)
T/C (endpoint: mean survival time, dose: 100.0 mg/kg/injection, schedule: Q01DX001 (ip), vehicle: saline): 100 % of control | T/C (endpoint: mean survival time, dose: 200.0 mg/kg/injection, schedule: Q01DX001 (ip), vehicle: saline): 105 % of control | T/C (endpoint: mean survival time, dose: 400.0 mg/kg/injection, schedule: Q01DX001 (ip), vehicle: saline): 97 % of control

C1=C(CN2CCCCC2)COc2ccccc21
T/C (endpoint: mean survival time, dose: 37.5 mg/kg/injection, schedule: Q04DX003 (ip), vehicle: saline): 107 % of control | T/C [16]: 98 % of control | T/C (endpoint: mean survival time, dose: 75.0 mg/kg/injection, schedule: Q04DX003 (ip), vehicle: saline): 104 % of control | T/C (endpoint: mean survival time, dose: 150.0 mg/kg/injection, schedule: Q01DX001 (ip), vehicle: saline): 97 % of control | T/C (endpoint: mean survival time, dose: 150.0 mg/kg/injection, schedule: Q04DX003 (ip), vehicle: saline): 104 % of control

O=C(CC(=O)c1ccccc1)c1ccccc1.O=C(CC(=O)c1ccccc1)c1ccccc1.[Cl][Sn][Cl]
T/C [3]: 90 % of control | T/C [4]: 94 % of control

C[n+]1ccc(Nc2ccc(NC(=O)c3ccc(Nc4cc[n+](C)c5ccc(N)cc45)cc3N)cc2)cc1
T/C (endpoint: mean survival time, dose: 2.0 mg/kg/injection, schedule: Q01DX009 (ip), vehicle: water): 205 % of control | T/C (endpoint: mean survival time, dose: 4.0 mg/kg/injection, schedule: Q01DX009 (ip), vehicle: water): 316 % of control

CCCCC[CH2][Sn]([CH2]C)([CH2]C)[O]C(C)=O
T/C (endpoint: mean survival time, dose: 0.5 mg/kg/injection, schedule: Q04DX003 (ip), vehicle: saline): 103 % of control | T/C (endpoint: mean survival time, dose: 0.63 mg/kg/injection, schedule: Q04DX003 (ip), vehicle: saline with Tween-80): 95 % of control | T/C (endpoint: mean survival time, dose: 1.0 mg/kg/injection, schedule: Q04DX003 (ip), vehicle: saline): 100 % of control | T/C (endpoint: mean survival time, dose: 1.25 mg/kg/injection, schedule: Q04DX003 (ip), vehicle: saline with Tween-80): 93 % of control | T/C (endpoint: mean survival time, dose: 2.0 mg/kg/injection, schedule: Q04DX003 (ip), vehicle: saline): 91 % of control | T/C (endpoint: mean survival time, dose: 2.5 mg/kg/injection, schedule: Q04DX003 (ip), vehicle: saline with Tween-80): 88 % of control

C/C(=N\N)c1ccc(Cl)cc1
T/C [3]: 103 % of control | T/C [4]: 123 % of control | T/C [5]: 109 % of control
